Measured values as given in the supplement of paper PMC11061612.

Assays:
Assay in all cases: Bliss excess, mean over the matrix (fraction); higher = more synergy
[1] = test system: EB-3 (Burkitt's Lymphoma)
Outline: (§1)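 Cell lines in DMEM/F12 or RPMI with 10% FBS were plated in 1536-well plates, held 24 hours at 37°C, 5% CO2, then given two-drug dose matrices for 72 hours (DMSO typically 0.2%). Viability was read by CellTiter-Glo 2.0 luminescence and scaled as inhibition from 0 (vehicle wells) to 1 (blank wells). Combination Emax is the second-highest inhibition in the matrix; Bliss excess is observed combination effect minus expected EA + EB − EA·EB, EA and EB being single-agent effects.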

[2] = test system: SJRH30 (Rhabdomyosarcoma)
Outline: as §1

[3] = test system: COLO-684 (Endometrial Carcinoma)
Outline: as §1

[4] = test system: OVTOKO (Ovarian Carcinoma)
Outline: as §1

[5] = test system: HTC-C3 (Thyroid Gland Carcinoma)
Outline: as §1

[6] = test system: NCI-H1755 (Lung Adenocarcinoma)
Outline: as §1

[7] = test system: SNU-175 (Colorectal Carcinoma)
Outline: as §1

[8] = test system: NCI-H810 (Non-Small Cell Lung Carcinoma)
Outline: as §1

[9] = test system: PC-14 (Lung Adenocarcinoma)
Outline: as §1

[10] = test system: KYSE-70 (Esophageal Squamous Cell Carcinoma)
Outline: as §1

[11] = test system: AsPC-1 (Pancreatic Carcinoma)
Outline: as §1

[12] = test system: RPMI-8866 (Chronic Myelogenous Leukemia)
Outline: as §1

[13] = test system: RERF-LC-KJ (Lung Adenocarcinoma)
Outline: as §1

[14] = test system: NCI-H1155 (Non-Small Cell Lung Carcinoma)
Outline: as §1

[15] = test system: AN3-CA (Endometrial Carcinoma)
Outline: as §1

KYM-1 (Rhabdomyosarcoma) = test system: KYM-1 (Rhabdomyosarcoma)
Outline: as §1

[16] = test system: HSC-3 (Oral Cavity Carcinoma)
Outline: as §1

[17] = test system: OV-90 (Ovarian Carcinoma)
Outline: as §1

[18] = test system: BALL-1 (B-Lymphoblastic Leukemia)
Outline: as §1

RT4 (Bladder Carcinoma) = test system: RT4 (Bladder Carcinoma)
Outline: as §1

Compound	Bliss excess [1]	Bliss excess [2]	Bliss excess [3]	Bliss excess [4]	Bliss excess [5]	Bliss excess [6]	Bliss excess [7]	Bliss excess [8]	Bliss excess [9]	Bliss excess [10]	Bliss excess [11]	Bliss excess [12]	Bliss excess [13]	Bliss excess [14]	Bliss excess [15]	Bliss excess (KYM-1 (Rhabdomyosarcoma))	Bliss excess [16]	Bliss excess [17]	Bliss excess [18]	Bliss excess (RT4 (Bladder Carcinoma))
CN(C)CCCOc1ccc(-c2ccc3ncc4c(c3c2)n(C2CCOCC2)c(=O)n4C)cn1 [AZD0156] + C[C@@H]1COCCN1C2=NC(=NC(=C2)C3(CC3)[S@](=N)(=O)C)C4=C5C=CNC5=NC=C4 [AZD6738] (first compound max 1 µM, 7x7, partner max 10 µM)	-0.0035	0.0408	-0.0496	0.0039	0.0193	-0.0249	0.0006	-0.0082	0.0043	0.0033	-0.0184	-0.0014	0.0452	-0.0289	-0.0226	-0.0102	-0.0032	-0.0323	0.0274	-0.0408
COc1cccc(OCCCN)c1-c1cc(Nc2cnc(C#N)cn2)n[nH]1 [Prexasertib] + O=C(c1cc(Cc2n[nH]c(=O)c3ccccc23)ccc1F)N1CCN(C(=O)C2CC2)CC1 [Olaparib] (first compound max 1 µM, 7x7, partner max 10 µM)	-0.195	-0.104	-0.128	-0.035	-0.0615	-0.0582	0.0762	-0.0082	-0.0478	-0.0248	-0.0956	0.0028	-0.0597	-0.0309	-0.0523	-0.0609	-0.0093	-0.0191	-0.0145	0.0044
Cn1cnc2c(F)c(Nc3ccc(Br)cc3Cl)c(C(=O)NOCCO)cc21 [Selumetinib] + C=CCn1c(=O)c2cnc(Nc3ccc(N4CCN(C)CC4)cc3)nc2n1-c1cccc(C(C)(C)O)n1 [AZD1775] (first compound max 10 µM, partner max 1 µM)	-0.0729	-0.0372	-0.0323	-0.114	0.0338	0.0496	-0.0174	-0.0632	-0.0475	-0.0339	-0.046	-0.0049	-0.0044	-0.0474	-0.0495	-0.0696	-0.0355	-0.0274	0.0018	-0.0127
CN(C)CCCOc1ccc(-c2ccc3ncc4c(c3c2)n(C2CCOCC2)c(=O)n4C)cn1 [AZD0156] + CCN(CCO)CCCOc1ccc2c(Nc3cc(CC(=O)Nc4cccc(F)c4)[nH]n3)ncnc2c1 [AZD2811] (first compound max 1 µM, 7x7, partner max 1 µM)	0.0304	0.0035	-0.0036	-0.0337	-0.0198	-0.0132	-0.0101	0.0302	-0.0042	0.0006	-0.0461	0.0518	-0.004	-0.0175	-0.0019	-0.0186	-0.0087	-0.0823	0.171	-0.0063
CN(CCO)CC[C@H](CSc1ccccc1)Nc1ccc(S(=O)(=O)NC(=O)c2ccc(N3CCC([C@@H](O)c4ccccc4-c4ccc(Cl)cc4)CC3)cc2)cc1S(=O)(=O)C(F)(F)F [AZD4320] + CN(C)CCCOc1ccc(-c2ccc3ncc4c(c3c2)n(C2CCOCC2)c(=O)n4C)cn1 [AZD0156] (first compound max 1 µM, 7x7, partner max 1 µM)	-0.0389	0.0144	-0.0218	-0.0217	-0.0185	-0.0164	-0.0219	-0.0328	-0.019	-0.0124	-0.0506	-0.0756	-0.0413	-0.0105	-0.0153	-0.0256	-0.0532	-0.0141	-0.0185	-0.0057
COc1cccc(OCCCN)c1-c1cc(Nc2cnc(C#N)cn2)n[nH]1 [Prexasertib] + Cc1cc2ncnn2cc1Nc1ncc2c(n1)n(C1CCOCC1)c(=O)n2C [AZD7648] (first compound max 1 µM, 7x7, partner max 10 µM)	-0.0106	-0.0311	-0.0547	-0.0079	-0.018	-0.0249	0.0311	0.0108	-0.037	-0.0383	-0.0242	0.0455	0.0558	0.0039	-0.0393	-0.0078	-0.0096	0.0252	0.0202	-0.0045
COc1nnc2ccc(N3CCC(c4ccc(OCCN5CCN(C)C(=O)[C@H]5C)cc4)CC3)nn12 [AZD5153] + CC1(C)CCC(CN2CCN(c3ccc(C(=O)NS(=O)(=O)c4ccc(NCC5CCOCC5)c([N+](=O)[O-])c4)c(Oc4cnc5[nH]ccc5c4)c3)CC2)=C(c2ccc(Cl)cc2)C1 [Venetoclax] (first compound max 1 µM, 7x7, partner max 1 µM)	0.0042	-0.0536	-0.0435	-0.0682	-0.0648	-0.0416	-0.0392	-0.0474	-0.03	-0.0793	-0.0807	-0.0979	-0.0146	0.0223	-0.0347	-0.0124	-0.0846	-0.085	-0.0141	-0.019
Cc1c2c(nn1C)CSCc1cc(n(C)n1)CSc1cc(c3ccccc3c1)OCCCc1c(C(=O)O)n(C)c3c-2c(Cl)ccc13 [AZD5991] + C=CCn1c(=O)c2cnc(Nc3ccc(N4CCN(C)CC4)cc3)nc2n1-c1cccc(C(C)(C)O)n1 [AZD1775] (first compound max 1 µM, partner max 1 µM)	-0.0242	-0.0362	-0.0587	0.0474	0.0091	0.0006	-0.0185	0.0025	-0.001	0.015	0.0293	-0.0441	0.0255	0.0707	-0.0512	0.0583	0.0184	-0.0929	-0.0181	0.0351
